Measured values published in patent US9161936B2, “Laquinimod for treatment of GABA mediated disorders” (TEVA PHARMACEUTICAL INDUSTRIES, LTD., priority 2012, dated 2015).

Legend:
[1] = test system: glutamate-mediated sEPSCs in control neurons; assay: Bath application of LQ on corticostriatal slices of wild type mice, sEPSCs; assay type: cell-based, mouse
cannabinoid CB1 receptor = cannabinoid CB1 receptor (Mus musculus, UniProt P47746); assay: Effect of HU210 on sIPSC frequency in striatal neurons (CB1 sensitivity of GABA synapses); settings: for sIPSC frequency respect to pre-drug values: HU210 1 μM
cannabinoid CB1 receptor, sequence (P47746 whole entry): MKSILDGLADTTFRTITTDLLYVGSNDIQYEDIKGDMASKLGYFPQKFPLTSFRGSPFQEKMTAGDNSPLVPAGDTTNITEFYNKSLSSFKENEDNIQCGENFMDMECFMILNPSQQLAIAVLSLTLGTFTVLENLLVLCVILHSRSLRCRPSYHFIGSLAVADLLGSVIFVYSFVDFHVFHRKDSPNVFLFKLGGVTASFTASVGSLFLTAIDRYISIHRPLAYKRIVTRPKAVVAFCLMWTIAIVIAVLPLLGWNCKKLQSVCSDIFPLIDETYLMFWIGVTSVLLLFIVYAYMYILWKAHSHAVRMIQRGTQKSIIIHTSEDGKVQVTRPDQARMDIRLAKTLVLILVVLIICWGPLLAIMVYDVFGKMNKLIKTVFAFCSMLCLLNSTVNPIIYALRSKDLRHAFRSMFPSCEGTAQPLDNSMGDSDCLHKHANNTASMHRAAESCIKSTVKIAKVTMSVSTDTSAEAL
Protocol: Recordings were performed between 25 and 35 dpi. Mice were killed by cervical dislocation under halothane anaesthesia, and corticostriatal coronal slices (200 μm) were prepared from fresh tissue blocks of the brain with the use of a vibratome (Centonze et al., 2007, 2009; Rossi et al., 2010a,b). A single slice was then transferred to a recording chamber and submerged in a continuously flowing artificial CSF (ACSF) (34° C., 2-3 ml/min) gassed with 95% O2-5% CO2. The composition of the control ACSF was (in mM): 126 NaCl, 2.5 KCl, 1.2 MgCl2, 1.2 NaH2PO4, 2.4 CaCl2, 11 Glucose, 25 NaHCO3. Recording pipettes were advanced towards individual striatal cells in the slice under positive pressure and visual control (WinVision 2000, Delta Sistemi, Italy) and, on contact, tight GΩ seals were made by applying negative pressure. The membrane patch was then ruptured by suction and membrane current and potential monitored using an Axopatch 1D patch clamp amplifier (Axon Instruments, Foster City, Calif., USA). Whole-cell access resistances measured in voltage clamp were in the range of 5-20 MΩ. Whole-cell patch clamp recordings were made with borosilicate glass pipettes (1.8 mm o.d.; 2-3 MΩ), in voltage-clamp mode, at the holding potential (HP) of −80 mV. […] Conversely, to detect spontaneous GABAAmediated inhibitory postsynaptic currents (sIPSCs), intraelectrode solution had the following composition (mM): CsCl (110), K+-gluconate (30), ethylene glycol-bis(β-aminoethyl ether)-N,N,N′,N′-tetra-acetic acid (EGTA; 1.1), HEPES (10), CaCl2 (0.1), Mg-ATP (4), Na-GTP (0.3). MK-801 (30 μM) and CNQX (10 μM) were added to the external solution to block, respectively, NMDA and nonNMDA glutamate receptors. Synaptic events were stored by using P-CLAMP (Axon Instruments) and analyzed off line on a personal computer with Mini Analysis 5.1 (Synaptosoft, Leonia, N.J., USA) software. The detection threshold of spontaneous IPSCs and EPSCs was set at twice the baseline noise. The fact that no false events would be identified was confirmed by visual inspection for each experiment. Offline analysis was performed on spontaneous and miniature synaptic events recorded during fixed time epochs (3-5 min, 3-6 samplings), sampled every 5 or 10 minutes. […] For kinetic analysis, events with peak amplitude between 10 and 50 pA were grouped, aligned by half-rise time, normalized by peak amplitude. In each cell, the events were averaged to obtain rise times, decay times, and half widths (Centonze et al., 2009; Rossi et al., 2010a,b). […]
For data presented as mean±SE, n indicates the number of cells. One to six cells per animal were recorded. […] Multiple comparisons were analysed by one-way ANOVA followed by Tukey's HSD test. Comparisons between two groups were analysed by paired or unpaired Student's t-test. […]

[2] = background statement; cited from earlier work
[3] = test system: GABAA-mediated sIPSCs in control neurons; assay: Bath application of LQ on corticostriatal slices of wild type mice, sIPSCs; assay type: cell-based, mouse
[4] = systemically administered (Brück et al., 2011); cited from earlier work
spinal cord of EAE mice = assay: Histological evaluation of spinal cord of EAE mice; assay type: in vivo, mouse
Protocol: At least 5 mice per group were transcardially perfused through the left cardiac ventricle with saline, plus EDTA 0.5 M for 5-10 min followed by fixation with cold 4% paraformaldehyde (PFA) (Sigma, St Louis, Mo.) in 0.1 M phosphate buffer (pH 7.4). Subsequently, spinal cords and brains were carefully dissected out and post-fixed in 4% PFA for 3-4 h and processed for paraffin embedding. The quantification of neurological damage was performed on 5 μm paraffin CNS sections obtained from HC, LQ-EAE mice, and untreated-EAE mice. Three different staining were used to detect inflammatory infiltrates (H&E), demyelination (Luxol fast blue) and axonal damage (Bielshowsky). Immunohistochemistry for CD3 (pan-T cell marker, Serotec Ltd, Oxford, UK), and BS-I isolectin B4 (biotinilated from Sigma, St Louis, Mo.) was performed to investigate T cells and macrophages within the inflammatory cellular infiltrates, respectively. […] Neuropathological findings were quantified on an average of 18-20 complete cross-sections of spinal cord per mouse taken at 8 different levels of the spinal cord. The number of perivascular inflammatory infiltrates were calculated and expressed as the numbers of inflammatory infiltrates per mm^2, demyelinated areas and axonal loss were expressed as percentage of damaged area per mm2. The number of T cells and macrophages lining within the subarachnoid space or infiltrating the CNS parenchyma was calculated and expressed as the number of cells per mm2. An Olympus microscope for the acquisitions of pictures was used. Statistical analysis was performed using the unpaired Student's t-test.

[5] = mouse, in vivo, sc, 25 mg/kg
[6] = test system: GABAA-mediated sIPSCs in striatal neurons; assay: Whole-cell patch clamp of sIPSCs in striatal neurons of LQ-treated EAE mice; assay type: in vivo, mouse; settings: LQ-EAE mice 25 mg/kg, n=20
[7] = test system: glutamate-mediated sEPSCs in striatal neurons; assay: Whole-cell patch clamp of sEPSCs in striatal neurons of LQ-treated EAE mice; assay type: in vivo, mouse; settings: LQ-EAE mice 25 mg/kg
EAE mice = assay: EAE induction and disease evaluation, preventive daily s.c. LQ; assay type: in vivo, mouse; settings: for mice that developed the disease (incidence): 0-26 d.p.i., 15 mice; for maximum disease score: score 0-5
Protocol: Female C57BL/6 mice at 6-8 weeks of age were purchased from Charles River (Calco, Milan, Italy) and housed in pathogen-free conditions. All procedures involving animals were performed according to the guidelines of the San Raffaele Scientific Institute Institutional Animal Care and Use Committee.
EAE was induced by immunization with 3 subcutaneous injection of 100 μl each, containing a total of 200 μg of myelin oligodendrocyte glycoprotein (MOG) peptide 35-55 (Multiple Peptide System) in incomplete Freund's adjuvant and 8 mg/ml of Mycobacterium tuberculosis (strain H37Ra; Difco). Pertussis toxin (Sigma) (500 ng) was injected on the day of the immunization and again two days later. Body weight and clinical score (0=healthy; 1=limp tail; 2=ataxia and/or paresis of hindlimbs; 3=paralysis of hindlimbs and/or paresis of forelimbs; 4=tetraparalysis; 5=moribund or death) were recorded daily.
EAE mice were treated once daily by subcutaneous (s.c.) injection of LQ (supplied by Teva Pharmaceutical Industries, Netanya, Israel) (thereafter referred as LQ-EAE). LQ was administered at different doses (from 1 to 25 mg/kg) starting the same day of immunization up to 26 days post immunization (d.p.i.). Sham treated EAE mice (thereafter referred as untreated-EAE) and healthy control mice (thereafter referred as HC) were used as controls. Statistical analysis was performed using the unpaired Student's t-test.

aEAE model = settings: shown in U.S. Pat. No. 6,077,851; cited from earlier work
[8] = LQ-EAE mice vs untreated-EAE mice
[9] = s.c. LQ vs untreated-EAE mice, spinal cord sections
[10] = LQ 1 μM bath application, control neurons
[11] = LQ 1 μM, 12 minutes, control neurons

N#Cc1cc2[nH]c(=O)c(=O)[nH]c2cc1[N+](=O)[O-] [CNQX, reference compound]
blockade of sEPSCs recorded in the presence of LQ ([1]; CNQX 10 μM, n=5): fully blocked

CCCCCCC(C)(C)c1cc(O)c2c(c1)OC(C)(C)[C@@H]1CC=C(CO)C[C@@H]21 [HU210]
sIPSC frequency respect to pre-drug values (cannabinoid CB1 receptor; 10 min, control slices, n=8): 76±3% | sIPSC frequency respect to pre-drug values (cannabinoid CB1 receptor; striatal neurons from LQ-EAE mice (25 mg/kg), n=10): 75±3% | sIPSC frequency respect to pre-drug values (cannabinoid CB1 receptor; striatal neurons from untreated EAE mice, n=10): 101±3%

CCN(C(=O)c1c(O)c2c(Cl)cccc2n(C)c1=O)c1ccccc1 [LQ, N-ethyl-N-phenyl-1,2-dihydro-4-hydroxy-5-chloro-1-methyl-2-oxoquinoline-3-carboxamide]
oral bioavailability [2]: high | sIPSC amplitude ([3]; LQ 1 μM bath application): failed to alter | sIPSC frequency ([3]; LQ 1 μM bath application): failed to alter | sIPSC decay time compared to pre-drug values ([3]; LQ 1 μM, 12 minutes): 98±3% | sIPSC rise time compared to pre-drug values ([3]; LQ 1 μM, 12 minutes): 101±2% | sIPSC frequency ([3]; LQ 10-30 μM bath application, n=8, p<0.01): significantly increased | EC50 ([3]; Mus musculus, Neuron, dose-response curve, bath application, read-out: EC50 of LQ-induced increase of sIPSC frequency): 4.3 µM | crossing of the blood brain barrier [4]: able to cross the blood brain barrier | CD3+ T cells (spinal cord of EAE mice; [8]): significant reduction | IB4+ macrophages (spinal cord of EAE mice; [8]): significant reduction | axonal damage (percentage over total section area) (spinal cord of EAE mice; [9]): significantly reduces | inflammation (perivascular infiltrates per section) (spinal cord of EAE mice; [9]): significantly reduces | myelin loss (demyelination, percentage over total section area) (spinal cord of EAE mice; [9]): significantly reduces | CNS concentration [5]: 0.3 to 1 µM | sIPSC frequency ([6]; untreated-EAE 0.8±0.1, HC 1.7±0.1): 2.0±0.2 Hz | sIPSC amplitude ([6]; untreated-EAE 20±1.5, HC 32±1.3): 29±1.1 pA | sEPSC decay time ([7]; 25-35 dpi, n=20, untreated-EAE 5.4±0.4, HC 3.4±0.2): 4.2 ± 0.3 ms | sEPSC frequency ([7]; n=20, untreated-EAE 4.0±0.2, HC 2.7±0.2): 3.4±0.4 Hz | sEPSC half-width ([7]; n=20, untreated-EAE 6.4±0.4, HC 4.0±0.3): 5.0 ± 0.3 ms | sEPSC rise time ([7]; untreated-EAE 1.05±0.1, HC 1.03±0.1): 0.98 ± 0.1 ms | sEPSC amplitude ([7]; untreated-EAE 11.1±0.8, HC 12.0±1.0): 12.2±1.1 pA | mice that developed the disease (incidence) (EAE mice; 1 mg/kg LQ s.c. daily, untreated-EAE 15/15): 86.6% | maximum disease score (EAE mice; 1 mg/kg LQ s.c. daily, sham 3.5): 3.5 | cumulative score (0-26 dpi) (EAE mice; 1 mg/kg LQ s.c. daily, untreated EAE 27.5): 27.3 | mean disease onset (EAE mice; 1 mg/kg LQ s.c. daily, untreated-EAE 11.9 (±2.33)): 11.9 (±2.47) | cumulative score (0-26 dpi) (EAE mice; 5 mg/kg LQ s.c. daily): 21.5 | mean disease onset (EAE mice; 5 mg/kg LQ s.c. daily): 14.6 (±4.29) | mice that developed the disease (incidence) (EAE mice; 5 mg/kg LQ s.c. daily): 80% | maximum disease score (EAE mice; 5 mg/kg LQ s.c. daily): 3 | cumulative score (0-26 dpi) (EAE mice; 25 mg/kg LQ s.c. daily): 21.3 | mice that developed the disease (incidence) (EAE mice; 25 mg/kg LQ s.c. daily): 40% | maximum disease score (EAE mice; 25 mg/kg LQ s.c. daily): 1.5 | suppression of EAE (EAE mice; preventive treatment 0-26 dpi, daily s.c. 1-25 mg/kg, dose-dependent): significantly suppresses | mean disease onset (EAE mice; printed "the mg/kg LQ-EAE mice" (dose figure missing), s.c. daily): 13.5 (±2.43) | efficacy in the acute experimental autoimmune encephalomyelitis (aEAE) model (aEAE model): effective | effect of CB1 receptor agonist HU210 on sIPSCs after LQ treatment (cannabinoid CB1 receptor; prophylactic LQ 25 mg/kg in EAE mice): completely restored | sEPSC amplitude [1, 10]: failed to alter | sEPSC frequency [1, 10]: failed to alter | sEPSC decay time compared to pre-drug values [1, 11]: 101±2% | sEPSC rise time compared to pre-drug values [1, 11]: 99±1% | sEPSC amplitude ([1]; LQ 10-30 μM bath application, control neurons, n=10, p<0.01): reducing | EC50 ([1]; Mus musculus, Neuron, dose-response curve, bath application, control neurons, read-out: EC50 of LQ-induced decrease of sEPSC amplitude): 4.5 µM | sEPSC frequency respect to pre-drug values ([1]; highest concentration of LQ, n=7, p<0.05): 83±2.7%
